Measurements published in article PMC7465886, “4-(N-Alkyl- and -Acyl-amino)-1,2,4-triazole-3-thione Analogs as Metallo-β-Lactamase Inhibitors: Impact of 4-Linker on Potency and Spectrum of Inhibition” (Biomolecules, 2020).
Like-named read-outs stand apart in the source and are kept apart here.

Assays:
L1 = biological target: T1, L1 (Stenotrophomonas maltophilia, UniProt P52700); experiment: MBL inhibition, L1 (nitrocefin hydrolysis); type: biochemical; details: for inhibition at 100 µM: 100 μM inhibitor, read-out: Inhibition of L1 (dash)
T1 construct: made in house
T1 sequence (P52700 34-290): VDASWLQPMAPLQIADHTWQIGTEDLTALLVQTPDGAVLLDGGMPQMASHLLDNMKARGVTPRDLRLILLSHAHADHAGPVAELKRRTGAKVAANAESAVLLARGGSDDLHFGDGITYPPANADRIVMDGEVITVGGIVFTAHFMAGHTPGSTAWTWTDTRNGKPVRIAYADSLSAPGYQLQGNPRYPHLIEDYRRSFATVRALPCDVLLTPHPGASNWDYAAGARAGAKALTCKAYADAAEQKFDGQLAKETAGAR
Protocol: (§1) Compounds were prepared as 10 mM solutions in DMSO before dilution with appropriate buffers. Buffers were 25 mM Hepes pH 7.5 for CphA or 25 mM Hepes pH 7.5, 50 µM ZnCl2 for L1. The rates in the absence of inhibitor were not modified by addition of 1% DMSO. CphA and L1 enzymes, purified as previously described, were used at concentrations between 0.2 and 0.8 nM, respectively. The enzyme and the inhibitor (100 µM) were pre-incubated for 30 min in a volume of 495 µL at room temperature. The hydrolysis of a solution of 100 µM imipenem for CphA was monitored by following the absorbance variation at 300 nm using a Specord 50 PLUS spectrophotometer (Analytik Jena, Jena, Germany). For L1, the reporter substrate was nitrocefin (100 µM). The enzyme activity was measured by following the absorbance variation at 482 nm. The substrate hydrolysis was done at 30 °C. The activity was tested by measuring the initial rates in three samples without inhibitor that allowed to determine the percentage of residual β-lactamase activity in the presence of inhibitors. If the residual activity in the presence of 100 µM inhibitor was <30%, the initial rate conditions were used to study the inhibition in the presence of increasing concentrations of compounds (from 1 to 100 µM) and to determine the competitive inhibition constant Ki. The Hanes linearization of the Henri–Michaelis equation was used, and Ki was calculated on the basis of the following equation, v = (Vmax.S)/[S + Km(1 + I/Ki)]. The assays were performed in triplicates.

VIM-1 = biological target: T2, VIM-1 (Pseudomonas aeruginosa, UniProt A0A0F7KYQ8); experiment: MBL inhibition, reporter substrate method, VIM-1; type: biochemical
T2 construct: made in house; host or cells: E. coli BL21(DE3) derivative, pET-9a
Protocol: (§2) Compounds were prepared in DMSO at a final concentration of 50 mM prior to dilution in the assay buffer. The reaction rate was measured as the variation of absorbance observed upon substrate hydrolysis in a UV-Vis spectrophotometer or microplate reader at a wavelength of 300 nm (imipenem, meropenem), 260 nm (cefotaxime), or 482 nm (nitrocefin) and in the presence of a purified MBL enzyme (such as VIM-1, VIM-2, VIM-4, NDM-1, and IMP-1, at a final concentration ranging from 1 to 70 nM).
(§3) These enzymes were overproduced in derivatives of E. coli BL21(DE3) carrying a pET-9 a (IMP-1, VIM-1, VIM-2, and VIM-4) or pET-15 b (NDM-1) vector into which the metallo-β-lactamase-encoding open reading frame was cloned. Bacterial strains were grown in the auto-inducing medium, ZYP-5052, supplemented with 50 μg/mL kanamycin for 24 h at 37 °C [38]. IMP-1, VIM-1, VIM-2, and VIM-4 were purified by ion-exchange and gel filtration chromatography using an AKTA Purifier platform (GE Healthcare, Uppsala, Sweden) as previously described. NDM-1 (residues 37-270) was produced as an amino-terminal 6 xHis-tag fusion protein and was purified using affinity chromatography. After growth for 26 h at 25 °C, bacterial cells were harvested by centrifugation (10,000× g, 30 min, 4 °C), resuspended in 10 mM HEPES buffer (pH 7.5) containing 0.15 M NaCl (buffer A) in one-fifth of the original culture volume, and lysed by sonication. Cellular debris was removed by centrifugation (12,000× g, 40 min, 4 °C). The clarified sample was loaded on a HisTrap HP column (bed volume, 5 mL; GE Healthcare), followed by a wash step (25 mL) with buffer A containing 20 mM imidazole. Proteins were eluted using buffer A containing 350 mM imidazole. The resulting protein sample was desalted (HiPrep 26/10 Desalting column, GE Healthcare) using 20 mM triethanolamine (pH 7.2) supplemented with 50 μM ZnSO4 and concentrated using an Amicon Ultra-15 (MW cut-off, 10 kDa; Millipore, Burlington, MA, USA). The concentrated sample was loaded on a Superdex 75 prep grade column (XK16/100 column; bed volume, 140 mL; GE Healthcare) and the proteins eluted with buffer A containing 50 μM ZnSO4. The active fractions were pooled and stored at −20 °C. The purity of the protein preparations was estimated >95% by SDS-PAGE analysis. The authenticity of the enzyme preparations was confirmed by electron spray ionization mass spectrometry, as previously described.
(§4) The inhibition constants (Ki) were determined on the basis of a model of competitive inhibition by analyzing the dependence of the ratio v0/vi (v0, hydrolysis velocity in the absence of inhibitor; vi, hydrolysis velocity in the presence of inhibitor) as a function of [I] as already described. The slope of the plot of v0/vi vs. [I], which corresponds to Km^S/(Km^S + [S])Ki (where Km^S is the Km value of the reporter substrate and [S] its concentration in the reaction mixture) and allowed the calculation of the Ki value. Alternatively, a Dixon plot analysis was carried out by measuring the initial hydrolysis rates in the presence of variable concentrations of inhibitor and substrate. This allowed Ki values to be determined and supported the hypothesis that the various compounds behaved as competitive inhibitors of the various tested enzymes. The assays were performed in triplicate.

VIM-4 [1] = biological target: T3, VIM-4 (Pseudomonas aeruginosa, UniProt A0A0F7KYQ8, S205R); experiment: MBL inhibition, reporter substrate method, VIM-4; type: biochemical
T3 construct: made in house; host or cells: E. coli BL21(DE3) derivative, pET-9a
Protocol: as §2, §3, §4

NDM-1 [2] = biological target: T4, NDM-1 (Klebsiella pneumoniae, UniProt C7C422); experiment: MBL inhibition, reporter substrate method, NDM-1; type: biochemical; details: for inhibition at 100 µM: read-out: Inhibition of NDM-1 (dash in Ki column)
T4 sequence (C7C422 37-270 limits assumed): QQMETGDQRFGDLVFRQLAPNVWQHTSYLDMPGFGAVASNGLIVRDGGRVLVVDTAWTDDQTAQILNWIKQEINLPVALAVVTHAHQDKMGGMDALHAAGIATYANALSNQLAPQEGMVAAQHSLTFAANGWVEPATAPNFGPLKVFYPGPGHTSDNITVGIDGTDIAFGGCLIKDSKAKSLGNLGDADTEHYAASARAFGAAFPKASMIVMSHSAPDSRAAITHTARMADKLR
Protocol: as §2, §3, §4

[3] = tested on: E. coli LZ2310(pLBII-VIM-2); experiment: microbe, parasite or virus in culture; type: cell-based, Escherichia coli; details: for Restoration of cefoxitin activity (in words): 30 μg cefoxitin disk, compound 1 at 48 μg, EUCAST clinical breakpoints; for zone of inhibition at 40 µg/disc / zone of inhibition at 120 µg/disc: Escherichia coli, read-out: Inhibition Zone Diameter
Protocol: (§5) The potential activity of selected compounds was assessed by the agar disk-diffusion method, according to the CLSI (Clinical Laboratory Standard Institute) recommendations, using Mueller–Hinton medium. The inhibitor (dissolved in DMSO) was added (maximum volume of 15 μL) to a commercially available disk containing a defined amount of a β-lactam antibiotic (30 μg of cefoxitin (Oxoid, Milan, Italy)). After incubation (18 h at 35 °C), the diameter of the growth inhibition zone was measured and compared to that obtained in the absence of inhibitor. DMSO and EDTA (220 μg) were used as negative and positive controls, respectively. Experiments were performed in triplicate.
These tests were performed on an isogenic laboratory strain obtained after transforming Escherichia coli LZ2310 strain with a derivative of the high copy number plasmid pLB-II carrying the cloned blaVIM-2 gene harboring a cloned gene encoding the functional metallo-β-lactamase. Strain LZ2310 is a triple knockout mutant derived from K12 in which the genes encoding for components of the three major efflux pump systems were inactivated (genotype, ∆norE ∆mdfA N43 acrA1) and was used to generate an hyperpermeable background for MBL production and investigate the potential contribution of such mechanisms to inhibitor efflux.

IMP-1 [4] = biological target: T5, IMP-1 (Serratia marcescens, UniProt P52699); experiment: MBL inhibition, reporter substrate method, IMP-1; type: biochemical; details: for inhibition at 100 µM: read-out: Inhibition of IMP-1 (dash in Ki column)
T5 construct: made in house; host or cells: E. coli BL21(DE3) derivative, pET-9a
T5 sequence (P52699 19-246 limits assumed): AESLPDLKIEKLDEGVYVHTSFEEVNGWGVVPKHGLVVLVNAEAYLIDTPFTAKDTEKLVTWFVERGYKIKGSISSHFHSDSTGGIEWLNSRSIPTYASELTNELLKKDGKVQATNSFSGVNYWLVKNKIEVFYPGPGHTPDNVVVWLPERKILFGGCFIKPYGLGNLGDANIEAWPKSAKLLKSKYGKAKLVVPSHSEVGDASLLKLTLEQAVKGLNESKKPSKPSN
Protocol: as §2, §3, §4

CphA = biological target: T6, CphA (Aeromonas hydrophila, UniProt P26918); experiment: MBL inhibition, CphA (imipenem hydrolysis); type: biochemical
T6 construct: made in house
T6 sequence (P26918 28-254): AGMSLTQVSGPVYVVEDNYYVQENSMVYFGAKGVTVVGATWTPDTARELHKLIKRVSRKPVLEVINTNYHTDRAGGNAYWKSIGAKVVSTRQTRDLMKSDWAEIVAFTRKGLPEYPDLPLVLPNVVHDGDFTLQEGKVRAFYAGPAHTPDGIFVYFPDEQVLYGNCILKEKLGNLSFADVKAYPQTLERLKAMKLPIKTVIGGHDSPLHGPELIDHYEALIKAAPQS
Protocol: as §1, with “If the residual activity in the presence of 100 µM inhibitor was <30%, the initial rate conditions were used to study the inhibition in the presence of increasing concentrations of compounds (from 1 to 100 µM) and to determine the competitive inhibition constant Ki.” left out, “The assays were performed in triplicates.” left out

VIM-2 [5] = biological target: T7, VIM-2 (Escherichia coli, UniProt Q5U7L7); experiment: MBL inhibition, reporter substrate method, VIM-2; type: biochemical; details: hydrazine and hydrazide series; read-out: Ki Value VIM-2
T7 construct: made in house; host or cells: E. coli BL21(DE3) derivative, pET-9a
Protocol: as §2, §3, §4

[6] = tested on: VIM-4-producing laboratory strain; experiment: Disk diffusion on VIM-4-producing laboratory strain; type: cell-based
Protocol: as §5

VIM-2 [7] = biological target: T7, VIM-2; details: Schiff base analogs; read-out: Ki Value VIM-2, hydrazone-like compound (converted); cited from earlier work
NDM-1 [8] = biological target: T4, NDM-1; parameters: method as in PMID 32937203; details: Schiff base analogs; read-out: Ki Value NDM-1, hydrazone-like compound (converted); cited from earlier work
IMP-1 [9] = biological target: T5, IMP-1; parameters: method as in PMID 32937203; details: in parentheses; 100 μM inhibitor; cited from earlier work
VIM-4 [10] = biological target: T3, VIM-4; parameters: method as in PMID 32937203; details: Figure 1; read-out: Ki VIM-4, Schiff base; cited from earlier work
[11] = read-out: Inhibition of VIM-1 (dash)

`Cc1ccccc1-c1n[nH]c(=S)n1NCc1ccccc1C(=O)O` [Compound 2] gave a Ki (L1) of 110 ± 10 µM, an inhibition at 100 µM (VIM-1; [11]) of less than 30% and a Ki (VIM-4 [1]) of 10 ± 1 µM. For the same molecule, the inhibition at 100 µM (NDM-1 [2]) was less than 40%, the “Restoration of cefoxitin activity (in words)” value [3] was “did not show any remarkable activity” and the zone of inhibition at 40 µg/disc [3] was 11 mm. For the same molecule, the inhibition at 100 µM (IMP-1 [4]) was less than 40%, the Ki (CphA) was 100 ± 10 µM and the Ki (VIM-2 [5]) was 8 ± 0.7 µM.
In the case of `O=C(O)c1ccccc1CNn1c(-c2cccc(-c3ccccc3)c2)n[nH]c1=S` [Compound 3], the Ki (VIM-1) is reported as 3.6 ± 0.2 µM, the Ki (VIM-4 [1]) is reported as 0.57 ± 0.03 µM and the “Restoration of β-lactam activity (in words)” value [6] is reported as “lack of restoration activity”. The Ki (NDM-1 [2]; hydrazine series, read-out: Ki Value NDM-1) was 8.2 ± 0.7 µM, the “Restoration of cefoxitin activity (in words)” value [3] was “devoid of activity” and the zone of inhibition at 120 µg/disc [3] was 11 mm. It also gave a Ki (IMP-1 [4]; hydrazine series, read-out: Ki Value IMP-1) of 76 ± 13 µM and a Ki (VIM-2 [5]) of 0.24 ± 0.02 µM.
With `O=C(O)c1ccccc1CNn1c(-c2ccc3ccccc3c2)n[nH]c1=S` [Compound 4] the inhibition at 100 µM (L1) was less than 30%, the inhibition at 100 µM (VIM-1; read-out: Percentage of Inhibition at 100 μM Inhibitor, VIM-1) was 32% and the Ki (VIM-4 [1]) was 6.3 ± 0.7 µM. For the same molecule, the inhibition at 100 µM (NDM-1 [2]) was less than 40%, the “Restoration of cefoxitin activity (in words)” value [3] was “did not show any remarkable activity” and the zone of inhibition at 120 µg/disc [3] was 10 mm. For the same molecule, the inhibition at 100 µM (IMP-1 [4]) was less than 40% and the Ki (VIM-2 [5]) was 4.2 ± 0.9 µM.
Molecule `O=C(O)c1ccccc1CNn1c(Cc2ccccc2)n[nH]c1=S` [Compound 6] has an inhibition at 100 µM (L1) of less than 30%, an inhibition at 100 µM (VIM-1; [11]) of less than 30% and an inhibition at 100 µM (VIM-4 [1]; read-out: Inhibition of VIM-4 (dash)) of less than 30%. The inhibition at 100 µM (NDM-1 [2]) was less than 40%, the “Restoration of cefoxitin activity (in words)” value [3] was “did not show any remarkable activity” and the zone of inhibition at 40 µg/disc [3] was 10 mm. The inhibition at 100 µM (IMP-1 [4]) was less than 40% and the Ki (VIM-2 [5]) was 8.5 ± 2.3 µM.
`O=C(O)c1ccccc1CNn1c(Cc2ccc3ccccc3c2)n[nH]c1=S` [Compound 7] gave a Ki (VIM-1) of 19.5 ± 1.3 µM, a Ki (VIM-4 [1]) of 4.7 ± 0.3 µM and an inhibition at 100 µM (NDM-1 [2]) of less than 40%. For the same molecule, the “Restoration of cefoxitin activity (in words)” value [3] was “did not show any remarkable activity”, the zone of inhibition at 120 µg/disc [3] was 11 mm and the inhibition at 100 µM (IMP-1 [4]) was less than 40%. The Ki (VIM-2 [5]) was 1.8 ± 0.2 µM.
In the case of `O=C(O)c1ccccc1/C=N/n1c(-c2ccccc2)n[nH]c1=S` [JMV4390], the Ki (VIM-2 [7]) is given as 2.7 µM, the Ki (NDM-1 [8]) is given as 38 µM and the “Inhibition of IMP-1 (dash in Ki column), corresponding hydrazone-like compound” value (IMP-1 [9]) is given as “-^2 (-) (<40% of inhibition in the presence of 100 μM inhibitor)”. The Ki (VIM-4 [10]) was 1.4 µM.
